Patent US11161855B2, “Tricyclic fused thiophene derivatives as JAK inhibitors” (Incyte Corporation, priority 2012, dated 2021)

Tests used:
Assay type in all cases: biochemical
[1] = test system: human JAK1 (a.a. 837-1142); test: In vitro JAK kinase assay (HTRF), JAK1; conditions: ratio of IC50s, 1 mM ATP
Outline: (§1)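 Baculovirus-expressed catalytic domains (JAK1 a.a. 837-1142, JAK2 a.a. 828-1132) phosphorylate 500 nM biotinylated peptide at 1 mM ATP, Tris pH 7.8, 1 h at room temperature. EDTA stop and HTRF detection with Eu-Py20/SA-APC; IC50 values derived.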

[2] = biological target: human JAK2 (a.a. 828-1132) (Homo sapiens (Human), UniProt O60674); test: In vitro JAK kinase assay (HTRF), JAK2; parameters: key to JAK2 IC50 (nM): + indicates an IC50 of ≤100 nM; ++ indicates an IC50 of ≤1000 nM; +++ indicates an IC50 of ≤2000 nM; ++++ indicates an IC50 of >2000 nM; +++++ indicates that the IC50 was greater than the highest concentration tested; conditions: 1 mM ATP
Description: Compounds herein were tested for inhibitory activity of JAK targets according to the following in vitro assay described in Park et al., Analytical Biochemistry 1999, 269, 94-104. The catalytic domains of human JAK1 (a.a. 837-1142), JAK2 (a.a. 828-1132) and JAK3 (a.a. 781-1124) were expressed using baculovirus in insect cells and purified. The catalytic activity of JAK1, JAK2 or JAK3 was assayed by measuring the phosphorylation of a biotinylated peptide. The phosphorylated peptide was detected by homogenous time resolved fluorescence (HTRF). IC50s of compounds were measured for each kinase in the 40 μL reactions that contain the enzyme, ATP and 500 nM peptide in 50 mM Tris (pH 7.8) buffer with 100 mM NaCl, 5 mM DTT, and 0.1 mg/mL (0.01%) BSA. For the 1 mM IC50 measurements, ATP concentration in the reactions was 1 mM. Reactions were carried out at room temperature for 1 hour and then stopped with 20 μL 45 mM EDTA, 300 nM SA-APC, 6 nM Eu-Py20 in assay buffer (Perkin Elmer, Boston, Mass.). Binding to the Europium labeled antibody took place for 40 minutes and HTRF signal was measured on a PHERA star plate reader (BMG, Cary, N.C.). The Example compounds were each tested in the Example A assay (see Table 1 for data for the compounds of the examples as tested by the assay of Example A at 1 mM ATP).

[3] = biological target: human JAK1 (a.a. 837-1142) (Homo sapiens, UniProt P23458); test: In vitro JAK kinase assay (HTRF), JAK1; conditions: 1 mM ATP
Outline: as §1

Chain of human JAK2 (a.a. 828-1132) (O60674 828-1132): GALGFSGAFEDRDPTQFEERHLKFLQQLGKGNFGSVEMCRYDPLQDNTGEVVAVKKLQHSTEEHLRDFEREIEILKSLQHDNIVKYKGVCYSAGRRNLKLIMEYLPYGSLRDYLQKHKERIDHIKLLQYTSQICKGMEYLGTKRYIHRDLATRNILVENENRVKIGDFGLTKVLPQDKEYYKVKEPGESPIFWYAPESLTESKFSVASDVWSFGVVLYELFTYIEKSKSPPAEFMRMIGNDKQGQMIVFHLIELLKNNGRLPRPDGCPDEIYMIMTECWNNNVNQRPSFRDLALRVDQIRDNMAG

SMILES | JAK2/JAK1 [1] | JAK2 IC50 (nM) [2] | IC50 [3] [nM] | IC50 [2] [nM]
C[C@@H](O)c1nc2cnc3ccsc3c2n1[C@H]1CCCN(C(=O)CCC(F)(F)F)C1 [Example 52, (1R)-1-{1-[(3S)-1-(4,4,4-Trifluorobutanoyl)piperidin-3-yl]-1H-imidazo[4,5-d]thieno[3,2-b]pyridin-2-yl}ethanol] | >10 | +++++ | – | –
C[C@@H](O)c1nc2cnc3ccsc3c2n1[C@@H]1CC[C@@H](CC#N)[C@@H](O)C1 (single isomer, unassigned) [36 (second peak)] | >10 | – | ≤ 100 | ≤ 1000
CCc1nc2cnc3ccsc3c2n1[C@@H]1CC[C@@H](CC#N)[C@H](O)C1 (single isomer, unassigned) [40 (second peak)] | – | +++++ | > 2000 | –
Cc1nc2cnc3ccsc3c2n1[C@@H]1CC[C@@H](CC#N)[C@H](O)C1 (single isomer, unassigned) [41 (second peak)] | – | +++++ | > 2000 | –
CCc1nc2cnc3ccsc3c2n1[C@H]1CC[C@H](CC#N)[C@@H](O)C1 (single isomer, unassigned) [40 (first peak)] | >10 | – | ≤ 100 | ≤ 1000
C[C@@H](O)c1nc2cnc3ccsc3c2n1[C@H]1CC[C@H](CC#N)[C@@H](O)C1 (single isomer, unassigned) [37 (first peak)] | >10 | +++++ | ≤ 1000 | –
C[C@@H](O)c1nc2cnc3ccsc3c2n1[C@@H]1CC[C@@H](CC#N)[C@H](O)C1 (single isomer, unassigned) [37 (second peak)] | >10 | – | ≤ 100 | ≤ 1000
C[C@@H](O)c1nc2cnc3ccsc3c2n1[C@H]1CC[C@H](CC#N)[C@H](O)C1 (single isomer, unassigned) [36 (first peak)] | >10 | – | ≤ 100 | > 2000
C[C@@H](O)c1nc2cnc3ccsc3c2n1[C@H]1CC[C@H](O)CC1 [Example 3, trans-4-{2-[(1R)-1-Hydroxyethyl]-1Z-imidazo[4,5-d]thieno[3,2-b]pyridin-1-yl}cyclohexanol] | >10 | – | – | –
CC(C)OC(=O)NC[C@H]1CC[C@H](n2c(CC#N)nc3cnc4ccsc4c32)CC1 [Example 88, Isopropyl ({trans-4-[2-(cyanomethyl)-1H-imidazo[4,5-d]thieno[3,2-b]pyridin-1-yl]cyclohexyl}methyl)carbamate] | >10 | – | – | –
Cc1nc2cnc3ccsc3c2n1[C@H]1CC[C@H](CC#N)CC1 [Example 48, [trans-4-(2-Methyl-1H-imidazo[4,5-d]thieno[3,2-b]pyridin-1-yl)cyclohexyl]acetonitrile] | >7 | – | – | –
CC(C)OC(=O)NC[C@H]1CC[C@H](n2c([C@@H](C)O)nc3cnc4ccsc4c32)CC1 [Example 84, Isopropyl [(trans-4-{2-[(1R)-1-hydroxyethyl]-1H-imidazo[4,5-d]thieno[3,2-b]pyridin-1-yl}cyclohexyl)methyl]carbamate] | >10 | – | – | –
C[C@@H](O)c1nc2cnc3ccsc3c2n1C1CCCC(CCC#N)C1 (stereo partly drawn) [Example 32, 3-(3-{2-[(1R)-1-Hydroxyethyl]-1H-imidazo[4,5-d]thieno[3,2-b]pyridin-1-yl}cyclohexyl)propanenitrile] | >10 | – | – | –
C[C@@H](O)c1nc2cnc3ccsc3c2n1[C@H]1CCCN(CCC#N)C1 [Example 56, 3-((3S)-3-{2-[(1R)-1-Hydroxyethyl]-1H-imidazo[4,5-d]thieno[3,2-b]pyridin-1-yl}piperidin-1-yl)propanenitrile] | >10 | – | – | –
C[C@@H](O)c1nc2cnc3ccsc3c2n1[C@H]1CC[C@H](CC#N)CC1.Cl [Example 10, (trans-4-{2-[(1R)-1-Hydroxyethyl]-1H-imidazo[4,5-d]thieno[3,2-b]pyridin-1-yl}cyclohexyl)acetonitrile HCl Salt] | >10 | – | – | –
